Experimental findings from patent publication US20250197420A1, “MACROCYCLIC COMPOUNDS, COMPOSITIONS, AND METHODS OF USING THEREOF” (Sionna Therapeutics Inc., priority 2022, published 2025) are described below.

Read-outs that look alike come from different tables or passages of the source.

On to `Cn1nc2nc1-c1cc(ccc1F)Oc1c(F)cc3[nH]ccc3c1CCC(=O)NS(=O)(=O)CC=CCC2(C)c1cccc(Br)c1` (centres unmarked), for which, where the note is “from C=CCC(C)(c1cccc(Br)c1)c1nc(-c2cc(Oc3c(F)cc4[nH]ccc4c3CCC(=O)NS(=O)(=O)CC=C)ccc2F)n(C)n1, rcm bond, 19-membered ring, Grubbs II (0.2 eq), toluene, 2.4 mM, 65.0 °C, 0.75 h”, the ring closure, isolated yield stood at 60%.
Compound `Cc1ccc(S(=O)(=O)n2ccc3c4c(c(F)cc32)Oc2ccnc(c2)-c2nc(nn2C)[C@@](C)(c2cccc(I)c2)CCCCC(C)(C)CN(C)C(=O)C4)cc1` displayed a ring closure, isolated yield (amide bond, 19-membered ring, with chain assembly) of 35%.
As to “Methyl (2S)-3-[3-[(13E)-22,28-difluoro-3,6,10,10-tetramethyl-12,12-dioxo-]9-(p-tolylsulfonyl)-24-oxa-12A6-thia-3,4,11,19,30-pentazapentacyclo[23.3.1.12,5.015,23.016,20]triaconta-1(29),2(30),4,13,15,17,20,22,25,27-decaen-6-yl]phenyl]-2-methyl-propanoate”, for the setting “cc_pd bond, 18-membered ring, Pd(PtBu3)2/TEA, toluene, 1.75 mM, 100.0 °C”, the ring closure, isolated yield worked out at 65%.
`CN1CC(C)(C)CCC[C@](C)(c2cccc(I)c2)c2nc(n(C)n2)-c2cc(ccn2)Oc2c(F)cc3[nH]ccc3c2/C=C/C1=O` yielded a ring closure, isolated yield (from CNCC(C)(C)CCC[C@](C)(c1cccc(I)c1)c1nc(-c2cc(Oc3c(F)cc4[nH]ccc4c3/C=C/C(=O)O)ccn2)n(C)n1, amide bond, 19-membered ring, 2 steps) of 37%.
Regarding `CCOC(=O)CCc1cccc(C2(C)CCCOC(=O)N(C)C/C=C/c3c(c(F)cc4[nH]ccc34)Oc3ccc(F)c(c3)-c3ncc2[nH]3)c1` (centres unmarked), the ring closure, isolated yield (from CCC[CH2][Sn](/[CH]=C/CN(C)C(=O)OCCCC(C)(c1cccc(CCC(=O)OCC)c1)c1cnc(-c2cc(Oc3c(F)cc4[nH]ccc4c3Br)ccc2F)[nH]1)([CH2]CCC)[CH2]CCC, cc_pd bond, 19-membered ring) stood at 66%.
